Assay results: US20130217664A1, “NOVEL COMPOUNDS USEFUL FOR THE TREATMENT OF DEGENERATIVE AND INFLAMMATORY DISEASES” (priority 2012, published 2013)

Columns and labels:
human JAK1 = molecular target: T1, human JAK1 (Homo sapiens, UniProt P23458); assay: JAK1 inhibition assay (polyGT substrate / Ulight-JAK1 peptide); format: biochemical; settings: recombinant human JAK1 catalytic domain; polyGT or Ulight-JAK1 peptide assay
T1 construct: catalytic domain, amino acids 866-1154; catalog number PV4774; purchased Invitrogen PV4774
T1 sequence (P23458 866-1154): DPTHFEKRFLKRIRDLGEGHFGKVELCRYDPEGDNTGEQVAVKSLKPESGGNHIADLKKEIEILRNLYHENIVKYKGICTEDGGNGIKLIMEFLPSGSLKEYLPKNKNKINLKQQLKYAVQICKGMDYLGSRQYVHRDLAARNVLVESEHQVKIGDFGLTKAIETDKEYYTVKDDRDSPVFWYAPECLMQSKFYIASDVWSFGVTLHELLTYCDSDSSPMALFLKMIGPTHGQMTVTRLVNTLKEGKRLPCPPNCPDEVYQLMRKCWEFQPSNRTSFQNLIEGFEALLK
In short: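 Signal scaled between vehicle and 10 μM staurosporine. Radiometric polyGT reactions ran 45 min at 30 °C, counted after phosphoric-acid stop. Ulight peptide reactions ran 60 min at room temperature, fluorescence read after adding Eu-PT66 detection mix with EDTA.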

human JAK2 = molecular target: T2, human JAK2 (Homo sapiens, UniProt O60674); assay: JAK2 inhibition assay (polyGT substrate / Ulight-JAK1 peptide); format: biochemical; settings: recombinant human JAK2 catalytic domain; polyGT or Ulight-JAK1 peptide assay
T2 construct: catalytic domain (amino acids 808-1132; catalog number PV4210); GST; purchased Invitrogen PV4210
T2 sequence (O60674 808-1132): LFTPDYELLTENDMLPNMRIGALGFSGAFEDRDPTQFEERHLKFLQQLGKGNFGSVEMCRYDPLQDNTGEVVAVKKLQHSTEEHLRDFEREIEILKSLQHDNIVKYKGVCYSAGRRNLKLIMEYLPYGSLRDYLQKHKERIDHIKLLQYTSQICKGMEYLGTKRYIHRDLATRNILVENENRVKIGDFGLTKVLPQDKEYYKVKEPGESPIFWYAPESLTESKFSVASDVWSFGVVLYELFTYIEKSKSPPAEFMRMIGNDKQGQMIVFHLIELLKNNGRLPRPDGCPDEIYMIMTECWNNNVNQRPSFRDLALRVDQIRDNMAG
Procedure: 1.2 JAK2 Inhibition Assay
1.2.1 JAK2 Assay polyGT Substrate
0.025 mU of JAK2 is incubated with 2.5 μg polyGT substrate (Sigma catalog number P0275) in kinase reaction buffer (5 mM MOPS pH 7.5, 9 mM MgAc, 0.3 mM EDTA, 0.06% Brij and 0.6 mM DTT, 1 μM non-radioactive ATP, 0.25 μCi ^33P-gamma-ATP (GE Healthcare, catalog number AH9968) final concentrations) with or without 5 μL containing test compound or vehicle (DMSO, 1% final concentration), in a total volume of 25 μL, in a polypropylene 96-well plate (Greiner, V-bottom). After 90 min at 30° C., reactions are stopped by adding of 25 μL/well of 150 mM phosphoric acid. […] Plates are washed 6 times with 300 μL per well of a 75 mM phosphoric acid solution and the bottom of the plates is sealed. 40 μL/well of Microscint-20 is added, the top of the plates is sealed and readout is performed using the Topcount (Perkin Elmer). Kinase activity is calculated by subtracting counts per min (cpm) obtained in the presence of a positive control inhibitor (10 μM staurosporine) from cpm obtained in the presence of vehicle. The ability of a test compound to inhibit this activity is determined as:
Percentage inhibition=((cpm determined for sample with test compound present−cpm determined for sample with positive control inhibitor)divided by(cpm determined in the presence of vehicle−cpm determined for sample with positive control inhibitor))*100.
Dose dilution series are prepared for the compounds enabling the testing of dose-response effects in the JAK2 assay and the calculation of the IC50 for each compound.
1.2.2 JAK2 Ulight-JAK1 Peptide Assay
After 60 min at room temperature, reactions were stopped by adding 20 μL/well of detection mixture (1× detection buffer (Perkin Elmer, catalog number CR97-100C), 0.5 nM Europium-anti-phosphotyrosine (PT66) (Perkin Elmer, catalog number AD0068), 10 mM EDTA). […] Kinase activity was calculated by subtracting relative fluorescence units (RFU) obtained in the presence of a positive control inhibitor (10 μM staurosporine) from RFU obtained in the presence of vehicle. The ability of a test compound to inhibit this activity was determined as:
Percentage inhibition=((RFU determined for sample with test compound present−RFU determined for sample with positive control inhibitor)divided by(RFU determined in the presence of vehicle−RFU determined for sample with positive control inhibitor))*100.
Dose dilution series are prepared for compound enabling the testing of dose-response effects in the JAK2 assay and the calculation of the IC50 for the compound. Each compound is routinely tested at concentration of 20 μM followed by a 1/5 serial dilution, 10 points in a final concentration of 1% DMSO. […] The data are expressed as the average IC50 from the assays±standard error of the mean.

Compound `Cc1c(O)cccc1N(C)c1cc2c(cn1)ncn2C` [Compound 46, 2-methyl-3-(methyl(1-methyl-1H-imidazo[4,5-c]pyridin-6-yl)amino)phenol] has an IC50 (human JAK1) greater than 1 µM and an IC50 (human JAK2) greater than 1 µM.
For `CCN(c1ccc2ocnc2c1)c1cc2c(cn1)ncn2C` [Compound 3, N-ethyl-N-(1-methyl-1H-imidazo[4,5-c]pyridin-6-yl)benzo[d]oxazol-5-amine], the IC50 (human JAK1) was greater than 1 µM and the IC50 (human JAK2) was greater than 1 µM.
In the case of `CCN(c1cccc(C(O)c2ccccc2)c1)c1cc2c(cn1)ncn2C` (centres unmarked) [Compound 12, (3-(ethyl(1-methyl-1H-imidazo[4,5-c]pyridin-6-yl)amino)phenyl)(phenyl) MeOH], the IC50 (human JAK1) is reported as 0.501 to 1 µM and the IC50 (human JAK2) is reported as greater than 1 µM.
In the case of `CN(c1cc2c(cn1)ncn2C)c1ccccc1C(F)(F)F` [Compound 36, N,1-dimethyl-N-(2-(trifluoromethyl)phenyl)-1H-imidazo[4,5-c]pyridin-6-amine], the IC50 (human JAK1) is reported as greater than 1 µM and the IC50 (human JAK2) is reported as greater than 1 µM.
`CCN(c1ccc2c(ccn2C)c1)c1cc2c(cn1)ncn2C` [Compound 8, N-ethyl-1-methyl-N-(1-methyl-1H-indol-5-yl)-1H-imidazo[4,5-c]pyridin-6-amine] showed an IC50 (human JAK1) greater than 1 µM and an IC50 (human JAK2) of 0.101 to 0.5 µM.
`CCN(c1cccc(Oc2ccccc2)c1)c1cc2c(cn1)ncn2C` [Compound 11, N-ethyl-1-methyl-N-(3-phenoxyphenyl)-1H-imidazo[4,5-c]pyridin-6-amine] showed an IC50 (human JAK1) of 0.101 to 0.5 µM and an IC50 (human JAK2) greater than 1 µM.
`CN(c1ccc(OCC2CC2)cc1)c1cc2c(cn1)ncn2C` [Compound 24, N-(4-(cyclopropylmethoxy)phen-yl)-N,1-dimethyl-1H-imidazo[4,5-c]pyridin-6-amine] showed an IC50 (human JAK1) of 0.101 to 0.5 µM and an IC50 (human JAK2) greater than 1 µM.
`CCN(c1ccc(CO)cc1)c1cc2c(cn1)ncn2C` [Compound 13, (4-(ethyl(1-methyl-1H-imidazo[4,5-c]pyridin-6-yl)amino)phenyl)MeOH] gave an IC50 (human JAK1) of 0.501 to 1 µM and an IC50 (human JAK2) greater than 1 µM.
`CCc1ccc(C(N)=O)cc1N(C)c1cc2c(cn1)ncn2C` [Compound 108, 4-ethyl-3-(methyl(1-methyl-1H-imidazo[4,5-c]pyridin-6-yl)amino)benzamide] gave an IC50 (human JAK1) of 0.101 to 0.5 µM and an IC50 (human JAK2) greater than 1 µM.
For `CCc1ccccc1Oc1cc2c(cn1)ncn2C` [Compound 298, 6-(2-Ethyl-phenoxy)-1-methyl-1H-imidazo[4,5-c]pyridine], the IC50 (human JAK1) was 0.501 to 1 µM and the IC50 (human JAK2) was greater than 1 µM.
`CCc1c(C(=O)OC)cccc1N(C)c1cc2c(cn1)ncn2C` [Compound 96, methyl 2-ethyl-3-(methyl(1-methyl-1H-imidazo[4,5-c]pyridin-6-yl)amino)benzate] was tested, and the IC50 (human JAK1) was greater than 1 µM and the IC50 (human JAK2) was greater than 1 µM.
For `CCc1ccncc1N(C)c1cc2c(cn1)ncn2C` [Compound 78, N-(4-ethylpyridin-3-yl)-N,1-dimethyl-1H-imidazo[4,5-c]pyridin-6-amine], the IC50 (human JAK1) was 0.101 to 0.5 µM and the IC50 (human JAK2) was greater than 1 µM.
With `COc1ccc(COc2cccc(N(C)c3cc4c(cn3)ncn4C)c2C)cc1` [Compound 44, N-(3-(4-methoxybenzyloxy)-2-methylphenyl)-N,1-dimethyl-1H-imidazo[4,5-c]pyridin-6-amine] the IC50 (human JAK1) was 0.501 to 1 µM and the IC50 (human JAK2) was greater than 1 µM.
Compound `CCc1cc(C(=O)N2CCS(=O)(=O)CC2)ccc1N(C)c1cc2c(cn1)ncn2C` [Compound 104, (1,1-Dioxothiomorpholin-4-yl)-{3-ethyl-4-[methyl-(1-methyl-1H-imidazo[4,5-c]pyridin-6-yl)-amino]-phenyl}-methanone] has an IC50 (human JAK1) greater than 1 µM and an IC50 (human JAK2) greater than 1 µM.
`CCc1cc(C(=O)N2CCN(C)CC2)ccc1N(C)c1cc2c(cn1)ncn2C` [Compound 100, (3-ethyl-4-(methyl(1-methyl-1H-imidazo[4,5-c]pyridin-6-yl)amino)phenyl)(4-methylpiperazin-1-yl)methanone] gave an IC50 (human JAK1) of 0.501 to 1 µM and an IC50 (human JAK2) greater than 1 µM.
`Cc1c(OCC(=O)N(C)C)cccc1N(C)c1cc2c(cn1)ncn2C` [Compound 65, N,N-dimethyl-2-(2-methyl-3-(methyl(1-methyl-1H-imidazo[4,5-c]pyridin-6-yl)amino)phenoxy)acetamide] gave an IC50 (human JAK1) greater than 1 µM and an IC50 (human JAK2) greater than 1 µM.
With `Cc1ccccc1N(C)c1cc2c(cn1)ncn2C` [Compound 15, N,1-dimethyl-N-o-tolyl 1H-imidazo[4,5-c]pyridin-6-amine] the IC50 (human JAK1) was 0.101 to 0.5 µM and the IC50 (human JAK2) was greater than 1 µM.
Compound `CCc1cc(C(=O)N2CCOCC2)ccc1N(C)c1cc2c(cn1)ncn2C` [Compound 117, (3-ethyl-4-(methyl(1-methyl-1H-imidazo[4,5-c]pyridin-6-yl)amino)phenyl)(morpho-lino)methanone] has an IC50 (human JAK1) of 0.101 to 0.5 µM and an IC50 (human JAK2) greater than 1 µM.
With `Cc1ccc(OCCN2CCCC2)cc1N(C)c1cc2c(cn1)ncn2C` [Compound 58, N,1-dimethyl-N-(2-methyl-5-(2-(pyrrolidin-1-yl)ethoxy)phenyl)-1H-imidazo[4,5-c]pyridin-6-amine] the IC50 (human JAK1) was greater than 1 µM and the IC50 (human JAK2) was greater than 1 µM.
Compound `CCc1ccc(C(=O)Nc2cccnc2)cc1N(C)c1cc2c(cn1)ncn2C` [Compound 124, 4-ethyl-3-(methyl(1-methyl-1H-imidazo[4,5-c]pyridin-6-yl)amino)-N-(pyridin-3-yl)benzamide] has an IC50 (human JAK1) of 0.101 to 0.5 µM and an IC50 (human JAK2) greater than 1 µM.
`CCCOc1ccc(N(C)c2cc3c(cn2)ncn3C)cc1` [Compound 22, N,1-dimethyl-N-(4-propoxyphenyl)-1H-imidazo[4,5-c]pyridin-6-amine] showed an IC50 (human JAK1) of 0.101 to 0.5 µM and an IC50 (human JAK2) of 0.501 to 1 µM.
`CCc1cc(C(=O)N(C)C)ccc1N(C)c1cc2c(cn1)ncn2C` [Compound 118, 3-ethyl-N,N-dimethyl-4-(methyl(1-methyl-1H-imidazo[4,5-c]pyridin-6-yl)amino)benzamide] gave an IC50 (human JAK1) of 0.101 to 0.5 µM and an IC50 (human JAK2) greater than 1 µM.
